Tests used:
[1] = tested on: rice; assay: Test B pre-/postemergence herbicide test; assay type: in vivo, Oryza sativa; settings: 0 = no effect, 100 = complete control, preemergence
Outline: (§1)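 Formulation: non-phytotoxic solvent mix with surfactant. Timing: preemergence on seed and postemergence on 2–18 cm plants, applied concurrently. Readout after 13–15 d greenhouse: visual 0–100 control rating against controls.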

[2] = tested on: Surinam grass; assay: Test B pre-/postemergence herbicide test; assay type: in vivo, Urochloa decumbens; settings: for Surinam Grass plant response rating: postemergence, scale 0 (no effect) to 100 (complete control)
Outline: as §1

[3] = tested on: ducksalad; assay: Test C flooded paddy test; assay type: in vivo, Heteranthera limosa
[4] = tested on: rice; assay: Test B flooded paddy test; assay type: in vivo, Oryza sativa; settings: 1000 g ai/ha, visual rating, scale 0 to 100 (0 no effect, 100 complete control), 13 to 15 days
Outline: (§2)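 Scale 0–100: zero equals no visible effect, 100 complete control, judged by eye relative to controls. Timing: 13 to 15 days in greenhouse post-treatment. Growth stage at spraying: two leaves (paddy) or one to four leaves, 2–18 cm (postemergence).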

[5] = tested on: morningglory; assay: Test B pre-/postemergence herbicide test; assay type: in vivo, Ipomoea coccinea; settings: for Morningglory plant response rating: postemergence, scale 0 (no effect) to 100 (complete control)
Outline: as §1

[6] = tested on: cocklebur; assay: Test B pre-/postemergence herbicide test; assay type: in vivo, Xanthium strumarium; settings: for Cocklebur plant response rating: postemergence, scale 0 (no effect) to 100 (complete control)
Outline: as §1

[7] = tested on: wild oat; assay: Test B postemergence herbicide test; assay type: in vivo, Avena fatua; settings: postemergence, visual rating, scale 0 (no effect) to 100 (complete control)
Outline: (§3)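 Each value is a visual 0–100 response rating taken against controls 13 to 15 days after treatment in the greenhouse. Plants received formulated chemical postemergence at the 1- to 4-leaf stage or, in flooded paddy, at the 2-leaf stage.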

[8] = tested on: lambsquarters; assay: Test B pre-/postemergence herbicide test; assay type: in vivo, Chenopodium album; settings: for Lambsquarters plant response rating: postemergence, scale 0 (no effect) to 100 (complete control)
Outline: as §1

[9] = tested on: ducksalad; assay: Test B flooded paddy test; assay type: in vivo, Heteranthera limosa; settings: 1000 g ai/ha, visual rating, scale 0 to 100 (0 no effect, 100 complete control), 13 to 15 days
Outline: as §2

[10] = tested on: small flower umbrella sedge; assay: Test B flooded paddy test; assay type: in vivo, Cyperus difformis; settings: 1000 g ai/ha, visual rating, scale 0 to 100 (0 no effect, 100 complete control), 13 to 15 days
Outline: as §2

[11] = tested on: large crabgrass; assay: Test B pre-/postemergence herbicide test; assay type: in vivo, Digitaria sanguinalis; settings: for Crabgrass, Large plant response rating: postemergence, scale 0 (no effect) to 100 (complete control)
Outline: as §1

[12] = tested on: giant foxtail; assay: Test B pre-/postemergence herbicide test; assay type: in vivo, Setaria faberi; settings: for Foxtail, Giant plant response rating: postemergence, scale 0 (no effect) to 100 (complete control)
Outline: as §1

[13] = tested on: barnyardgrass; assay: Test B flooded paddy test; assay type: in vivo, Echinochloa crus-galli; settings: 1000 g ai/ha, visual rating, scale 0 to 100 (0 no effect, 100 complete control), 13 to 15 days
Outline: as §2

[14] = tested on: smallflower umbrella sedge; assay: Test C flooded paddy test; assay type: in vivo, Cyperus difformis
[15] = tested on: pigweed; assay: Test B pre-/postemergence herbicide test; assay type: in vivo, Amaranthus retroflexus; settings: for Pigweed plant response rating: postemergence, scale 0 (no effect) to 100 (complete control)
Outline: as §1

[16] = tested on: corn; assay: Test B pre-/postemergence herbicide test; assay type: in vivo, Zea mays; settings: for Corn plant response rating: postemergence, scale 0 (no effect) to 100 (complete control)
Outline: as §1

[17] = tested on: barnyardgrass; assay: Test C flooded paddy test; assay type: in vivo, Echinochloa crus-galli
Outline: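 Ratings (0 = no effect, 100 = complete control) come from visual comparison with untreated plants after 12 to 14 days in the greenhouse. Treatment was postemergence at the 1- to 4-leaf stage (2–18 cm), or at the 2-leaf stage for the flooded paddy barnyardgrass.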

[18] = tested on: blackgrass; assay: Test B postemergence herbicide test; assay type: in vivo, Alopecurus myosuroides; settings: postemergence, visual rating, scale 0 (no effect) to 100 (complete control)
Outline: as §2

[19] = tested on: wheat; assay: Test B postemergence herbicide test; assay type: in vivo, Triticum aestivum; set-up: key to Wheat plant response rating: 0 = no effect, 100 = complete control; settings: postemergence, visual rating, scale 0 (no effect) to 100 (complete control)
Outline: as §3

[20] = tested on: barnyardgrass; assay: Test B pre-/postemergence herbicide test; assay type: in vivo, Echinochloa crus-galli; settings: for Barnyardgrass plant response rating: postemergence, scale 0 (no effect) to 100 (complete control)
Outline: as §1

[21] = tested on: velvetleaf; assay: Test B pre-/postemergence herbicide test; assay type: in vivo, Abutilon theophrasti; settings: for Velvetleaf plant response rating: postemergence, scale 0 (no effect) to 100 (complete control)
Outline: as §1

[22] = tested on: rice; assay: Test C flooded paddy test; assay type: in vivo, Oryza sativa
Outline: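 Injury scored visually against controls on a 0 (no effect) to 100 (complete control) scale, 12 to 14 days after treatment in greenhouse. Flooded paddy plants treated at 2-leaf stage; postemergence plants at 1- to 4-leaf stage, 2 to 18 cm tall.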

[23] = 125 g ai/ha, 0 = no effect, 100 = complete control, preemergence
[24] = 500 g ai/ha, visual rating, 0 = no effect, 100 = complete control, preemergence
[25] = 62 g ai/ha, scale 0 to 100 (0 no effect, 100 complete control)
[26] = 125 g ai/ha, scale 0 to 100 (0 no effect, 100 complete control)
[27] = 250 g ai/ha, scale of 0 to 100, 0 is no effect, 100 is complete control
[28] = 500 g ai/ha, visual rating after 12 to 14 days, scale 0 to 100 (0 no effect, 100 complete control)

`CCc1nc(C(C)(C)C)sc1C(=O)Nc1cccc(C(=O)N(C)CC)c1` [Compound 229] was tested, and the “Rice plant response rating (0 to 100 scale)” value ([1]; 125 g ai/ha) was 30, the “Plant response rating, Rice” value ([1]; 500 g ai/ha, visual rating) was 70 and the “Surinam Grass plant response rating (0 to 100 scale)” value [2, 23] was 40. The “Plant response rating, Surinam Grass” value [2, 24] was 80, the “Surinam Grass plant response rating” value ([2]; 125 g ai/ha, visual rating) was 10 and the “Surinam Grass plant response rating” value ([2]; 500 g ai/ha, visual rating) was 20. The “Ducksalad plant response rating” value [3, 25] was 0, the “Ducksalad plant response rating” value [3, 26] was 0 and the “Ducksalad plant response rating” value [3, 27] was 80. For the same molecule, the “Plant response rating, Ducksalad” value [3, 28] was 85, the “Rice plant response rating” value [4] was 90 and the “Morningglory plant response rating (0 to 100 scale)” value [5, 23] was 10. For the same molecule, the “Plant response rating, Morningglory” value [5, 24] was 20, the “Morningglory plant response rating” value ([5]; 125 g ai/ha, visual rating) was 10 and the “Morningglory plant response rating” value ([5]; 500 g ai/ha, visual rating) was 70. For the same molecule, the “Cocklebur plant response rating (0 to 100 scale)” value [6, 23] was 0, the “Plant response rating, Cocklebur” value [6, 24] was 40 and the “Cocklebur plant response rating” value ([6]; 125 g ai/ha, visual rating) was 20. The “Cocklebur plant response rating” value ([6]; 500 g ai/ha, visual rating) was 70, the “Oat, Wild plant response rating” value ([7]; 125 g ai/ha) was 30 and the “Oat, Wild plant response rating” value ([7]; 500 g ai/ha) was 50. The “Lambsquarters plant response rating (0 to 100 scale)” value [8, 23] was 90, the “Plant response rating, Lambsquarters” value [8, 24] was 100 and the “Lambsquarters plant response rating” value ([8]; 125 g ai/ha, visual rating) was 70. For the same molecule, the “Lambsquarters plant response rating” value ([8]; 500 g ai/ha, visual rating) was 80, the “Ducksalad plant response rating” value [9] was 90 and the “Sedge, Umbrella plant response rating” value [10] was 80. For the same molecule, the “Crabgrass, Large plant response rating (0 to 100 scale)” value [11, 23] was 40, the “Plant response rating, Crabgrass, Large” value [11, 24] was 100 and the “Crabgrass, Large plant response rating” value ([11]; 125 g ai/ha, visual rating) was 10. For the same molecule, the “Crabgrass, Large plant response rating” value ([11]; 500 g ai/ha, visual rating) was 20, the “Foxtail, Giant plant response rating (0 to 100 scale)” value [12, 23] was 50 and the “Plant response rating, Foxtail, Giant” value [12, 24] was 80. The “Foxtail, Giant plant response rating” value ([12]; 125 g ai/ha, visual rating) was 30, the “Foxtail, Giant plant response rating” value ([12]; 500 g ai/ha, visual rating) was 50 and the “Barnyardgrass plant response rating” value [13] was 90. The “Sedge, Umbrella plant response rating” value [14, 25] was 30, the “Sedge, Umbrella plant response rating” value [14, 26] was 40 and the “Sedge, Umbrella plant response rating” value [14, 27] was 80. For the same molecule, the “Plant response rating, Sedge, Umbrella” value [14, 28] was 80, the “Pigweed plant response rating (0 to 100 scale)” value [15, 23] was 100 and the “Plant response rating, Pigweed” value [15, 24] was 100. The “Pigweed plant response rating” value ([15]; 125 g ai/ha, visual rating) was 60, the “Pigweed plant response rating” value ([15]; 500 g ai/ha, visual rating) was 80 and the “Corn plant response rating (0 to 100 scale)” value [16, 23] was 10. The “Plant response rating, Corn” value [16, 24] was 40, the “Corn plant response rating” value ([16]; 125 g ai/ha, visual rating) was 10 and the “Corn plant response rating” value ([16]; 500 g ai/ha, visual rating) was 20. The “Barnyardgrass plant response rating” value [17, 25] was 40, the “Barnyardgrass plant response rating” value [17, 26] was 45 and the “Barnyardgrass plant response rating” value [17, 27] was 75. The “Plant response rating, Barnyardgrass” value [17, 28] was 80, the “Blackgrass plant response rating” value ([18]; 125 g ai/ha) was 30 and the “Blackgrass plant response rating” value ([18]; 500 g ai/ha) was 30. The “Wheat plant response rating” value ([19]; 125 g ai/ha) was 30, the “Wheat plant response rating” value ([19]; 500 g ai/ha) was 40 and the “Barnyardgrass plant response rating (0 to 100 scale)” value [20, 23] was 50. For the same molecule, the “Plant response rating, Barnyardgrass” value [20, 24] was 90, the “Barnyardgrass plant response rating” value ([20]; 125 g ai/ha, visual rating) was 20 and the “Barnyardgrass plant response rating” value ([20]; 500 g ai/ha, visual rating) was 50. For the same molecule, the “Velvetleaf plant response rating (0 to 100 scale)” value [21, 23] was 40, the “Plant response rating, Velvetleaf” value [21, 24] was 100 and the “Velvetleaf plant response rating” value ([21]; 125 g ai/ha, visual rating) was 60. For the same molecule, the “Velvetleaf plant response rating” value ([21]; 500 g ai/ha, visual rating) was 70, the “Rice plant response rating” value [22, 25] was 35 and the “Rice plant response rating” value [22, 26] was 35. For the same molecule, the “Rice plant response rating” value [22, 27] was 80 and the “Plant response rating, Rice” value [22, 28] was 90.

Reference: US20060069132A1, “Azolecarboxamide herbicides” (priority 2004, published 2006)
